Where a name gives a salt, the structure may show the parent alone.
molecular target: T1, Recombinant human IKKβ (residues 1-737) (Homo sapiens, UniProt O14920); assay: IKK2 assay (TR-FRET); format: biochemical; settings: ATP 1 μM final, read-out: pIC50 against IKK2 (converted)
T1 construct: Recombinant human IKKβ (residues 1-737); GST (C); made in house
T1 sequence (O14920 1-737): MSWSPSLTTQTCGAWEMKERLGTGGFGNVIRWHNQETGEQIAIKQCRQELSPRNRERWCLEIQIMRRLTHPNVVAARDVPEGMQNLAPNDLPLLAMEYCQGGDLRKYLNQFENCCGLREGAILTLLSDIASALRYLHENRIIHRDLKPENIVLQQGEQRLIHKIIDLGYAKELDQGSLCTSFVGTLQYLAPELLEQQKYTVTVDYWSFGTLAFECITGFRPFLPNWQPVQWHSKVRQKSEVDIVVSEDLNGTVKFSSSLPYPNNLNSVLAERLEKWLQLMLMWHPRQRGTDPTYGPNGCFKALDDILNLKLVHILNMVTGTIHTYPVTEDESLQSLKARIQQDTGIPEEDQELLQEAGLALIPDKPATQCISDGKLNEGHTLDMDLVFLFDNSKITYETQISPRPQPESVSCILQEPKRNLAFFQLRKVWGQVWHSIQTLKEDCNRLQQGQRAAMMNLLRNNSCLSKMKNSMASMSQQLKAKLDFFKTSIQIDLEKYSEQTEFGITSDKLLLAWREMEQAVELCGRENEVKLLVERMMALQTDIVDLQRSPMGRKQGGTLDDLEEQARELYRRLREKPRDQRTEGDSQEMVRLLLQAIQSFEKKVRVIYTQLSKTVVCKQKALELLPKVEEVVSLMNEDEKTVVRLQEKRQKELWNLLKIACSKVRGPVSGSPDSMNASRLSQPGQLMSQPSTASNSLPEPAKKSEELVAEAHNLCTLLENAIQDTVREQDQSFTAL
Procedure: Recombinant human IKKβ (residues 1-737) was expressed in baculovirus as a C-terminal GST-tagged fusion protein, and its activity was assessed using a time-resolved fluorescence resonance energy transfer (TR-FRET) assay. Briefly, IKK2 (0.5 nM-5 nM final) diluted in assay buffer (50 mM HEPES, 10 mM MgCl2, 1 mM CHAPS pH 7.4 with 1 mM DTT and 0.01% w/v BSA) was added to wells containing various concentrations of compound or DMSO vehicle (1.7% final). The reaction was initiated by the addition of GST-IB substrate (25 nM final)/ATP (1 μM final), in a total volume of 6 μl. The reaction was incubated for 15 minutes at room temperature, then terminated by the addition of 3 μl of detection reagent in buffer containing 50 mM EDTA (100 mM HEPES pH 7.4, 150 mM NaCl, 50 mM EDTA and 0.01% w/v BSA) containing antiphosphoserine-IB-32/36 monoclonal antibody 12C2 (Cell Signalling Technology, Beverly Mass., USA) labelled with W-1024 europium chelate (Wallac OY, Turku, Finland), and an APC-labelled anti-GST antibody (Prozyme, San Leandro, Calif., USA) was added and the reaction was further incubated for 60 minutes at room temperature. The degree of phosphorylation of GST-IB was measured using a BMG Rubystar plate reader (BMG Labtech, Aylesbury, UK) as a ratio of specific 665 nm energy transfer signal to reference europium 620 nm signal.

IC50, ≤ 10 µM:
CCS(=O)(=O)N1CCC(c2c[nH]c3c(C(N)=O)cc(-c4cccc(CN)c4)cc23)CC1 [Example 14, 5-[3-(aminomethyl)phenyl]-3-[1-(ethylsulfonyl)-4-piperidinyl]-1H-indole-7-carboxamide]
CCS(=O)(=O)N1CCC(c2c[nH]c3c(C(N)=O)cc(-c4cc(C#N)cc(CNCC(F)(F)F)c4)cc23)CC1 [Example 41, 5-(3-cyano-5-{[(2,2,2-trifluoroethyl)amino]methyl}phenyl)-3-[1-(ethylsulfonyl)-4-piperidinyl]-1H-indole-7-carboxamide trifluoroacetate]
CCS(=O)(=O)N1CCC(c2c[nH]c3c(C(N)=O)cc(-c4cc(CN(C)C)c(OC)c(OC)c4)cc23)CC1 [Example 51, 5-[3-[(dimethylamino)methyl]-4,5-bis(methyloxy)phenyl]-3-[1-(ethylsulfonyl)-4-piperidinyl]-1H-indole-7-carboxamide]
CCS(=O)(=O)N1CCC(c2c[nH]c3c(C(N)=O)cc(-c4cc(CNC(C)C)c(OC)c(OC)c4)cc23)CC1 [Example 53, 3-[1-(ethylsulfonyl)-4-piperidinyl]-5-[3-{[(1-methylethyl)amino]methyl}-4,5-bis(methyloxy)phenyl]-1H-indole-7-carboxamide]
CCS(=O)(=O)N1CCC(c2c[nH]c3c(C(N)=O)cc(-c4cc(CNC)c(OC)c(OC)c4)cc23)CC1 [Example 54]
CCS(=O)(=O)N1CCC(c2c[nH]c3c(C(N)=O)cc(-c4cc(CNCC(C)(C)C)c(OC)c(OC)c4)cc23)CC1 [Example 55, 5-[3-{[(2,2-dimethylpropyl)amino]methyl}-4,5-bis(methyloxy)phenyl]-3-[1-(ethylsulfonyl)-4-piperidinyl]-1H-indole-7-carboxamide]
CCS(=O)(=O)N1CCC(c2c[nH]c3c(C(N)=O)cc(-c4cc(CN(C)CCO)c(OC)c(OC)c4)cc23)CC1 [Example 56, 3-[1-(ethylsulfonyl)-4-piperidinyl]-5-[3-{[(2-hydroxyethyl)(methyl)amino]methyl}-4,5-bis(methyloxy)phenyl]-1H-indole-7-carboxamide]
CCS(=O)(=O)N1CCC(c2c[nH]c3c(C(N)=O)cc(-c4cc(CN5CCCC5)c(OC)c(OC)c4)cc23)CC1 [Example 57, 5-[3,4-bis(methyloxy)-5-(1-pyrrolidinylmethyl)phenyl]-3-[1-(ethylsulfonyl)-4-piperidinyl]-1H-indole-7-carboxamide]
CCS(=O)(=O)N1CCC(c2c[nH]c3c(C(N)=O)cc(-c4csc(CN5CCCC5CC(C)C)c4)cc23)CC1 (stereo not shown) [Example 93, 3-[1-(ethylsulfonyl)-4-piperidinyl]-5-(5-{[2-(2-methylpropyl)-1-pyrrolidinyl]methyl}-3-thienyl)-1H-indole-7-carboxamide trifluoroacetate]
CCS(=O)(=O)N1CCC(c2c[nH]c3c(C(N)=O)cc(-c4ccc(N5CCNCC5)nc4)cc23)CC1 [Example 135, 3-[1-(ethylsulfonyl)-4-piperidinyl]-5-[6-(1-piperazinyl)-3-pyridinyl]-1H-indole-7-carboxamide trifluoroacetate]
CCC(CC)NCc1ccc(-c2cc(C(N)=O)c3[nH]cc(C4CCN(S(=O)(=O)CC)CC4)c3c2)cc1 [Example 142, 5-(4-{[(1-ethylpropyl)amino]methyl}phenyl)-3-[1-(ethylsulfonyl)-4-piperidinyl]-1H-indole-7-carboxamide]
CCNCc1ccc(-c2cc(C(N)=O)c3[nH]cc(C4CCN(S(=O)(=O)CC)CC4)c3c2)cc1 [Example 145, 5-{4-[(ethylamino)methyl]phenyl}-3-[1-(ethylsulfonyl)-4-piperidinyl]-1H-indole-7-carboxamide]
CCS(=O)(=O)N1CCC(c2c[nH]c3c(C(N)=O)cc(-c4ccc(CN5CCCC5)cc4)cc23)CC1 [Example 149, 3-[1-(ethylsulfonyl)-4-piperidinyl]-5-[4-(1-pyrrolidinylmethyl)phenyl]-1H-indole-7-carboxamide trifluoroacetate]

Reference: patent publication US8063071B2 (GlaxoSmithKline, LLC, priority 2007, dated 2011)
